For this test, the target named is chymotrypsin (Bos taurus, UniProt P00766). Briefly: chymotrypsin inhibition assay. The test is classed as biochemical. The note with it: protease inhibition test; statement of the abstract.

With streptopeptolin [compound 1], the “inhibitory activity against chymotrypsin (in words)” value is listed as “showed inhibitory activity”.

These data come from PMC6072256 (ACS Omega, 2018).
